{
  "source": "patent US10100282B2",
  "about": "“Differentiation of pluripotent cells” (FUJIFILM Cellular Dynamics, Inc., priority 2009, dated 2018)",
  "key": {"[1]": {"tested_on": "ROCK", "conditions": "cited from earlier work"}, "[2]": {"tested_on": "hESCs and iPSCs", "experiment": "EB formation from single cell suspensions using ROCK inhibitors/PVA", "type": "cell-based, human", "conditions": "18-24 hrs", "description": "hESCs and iPSCs adapted to feeder free growth on matrigel maintained using mTESR were preconditioned for three days in the presence of mTesR-GF containing 0.1 ng/ml TGF-β and 20 ng/ml FGF-2. To initiate differentiation from single cells the, the cultures were treated with TrypLE™ (Invitrogen) for 6 minutes and the cells suspension was collected in (1) plain EB basal media, (2) EB basal media containing PVA, (3) EB basal media containing 0.5% PVA and 1 μM H1152 or 10 μM Y27632 ROCK inhibitor, or (4) EB basal media containing only 1 uM H1152 ROCK inhibitor. The cells were collected and washed once and plated in the respective media formulations on a low attachment plate at 37 C. The EB formation status was checked at 18-24 hrs later under a phase contrast microscope."}},
  "data": [
    {"compound": "Cc1cncc2cccc(S(=O)(=O)N3CCCNCC3C)c12", "note": "(stereo in doubt) [H-1152, (S)-(+)-2-Methyl-1-[(4-methyl-5-isoquinolinyl)sulfonyl]homopiperazine]", "values": [
      {"measurement": "potency relative to HA-100", "setting": "[1]", "result": "approximately ten-fold"},
      {"measurement": "EB status", "setting": "[2]; ROCK inhibitor present (1 μM H1152 or 10 μM Y27632), 0.5% PVA present", "result": "Formed"},
      {"measurement": "EB status", "setting": "[2]; ROCK inhibitor present, PVA absent", "result": "Formed"}
    ]}
  ]
}
